Measured values from article PMC8242589, “Cardiac Safety of Kinase Inhibitors – Improving Understanding and Prediction of Liabilities in Drug Discovery Using Human Stem Cell-Derived Models” (Frontiers in Cardiovascular Medicine, 2021).

Columns and labels:
[1] = system: hSC-CMs (Cor.4U Cardiomyocytes); experiment: CardioExcyte 96 impedance and EFP recording (beating rate, base impedance); assay type: cell-based, human; conditions: for activity at 0.2 µM / activity at 2 µM / activity at 20 µM / activity at 200 µM: Homo sapiens, Cardiomyocyte, vs baseline before drug (taken as 100%)
Summary of the method: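 hSC-CM monolayers (Cor.4U), cultured 4 days at 37 °C, 5% CO2, recorded spontaneously beating; impedance sampled at 1 kHz, EFP at 10 kHz. Beating rate taken as reciprocal of inter-spike interval in EFP. Each test concentration expressed as fractional change versus pre-drug baseline (100%).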

[2] = system: hSC-CMs (Cor.4U Cardiomyocytes); experiment: Apoptosis assay (CellEvent Caspase-3/7 Green, IncuCyte ZOOM kinetics over 24 h); assay type: cell-based, human; conditions: for activity at 0.2 µM / activity at 2 µM / activity at 20 µM / activity at 200 µM: Homo sapiens, Cardiomyocyte, normalized to time-matched vehicle control
Summary of the method: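 Apoptosis was followed kinetically with a caspase-3/7 green fluorescent probe, imaging phase contrast and fluorescence every 2 h through 24 h compound exposure, after a 2 h baseline. Human stem cell-derived cardiomyocytes had been pre-cultured 4 days at 37 °C. Green object area per well was expressed relative to time-matched vehicle, with ≥3 replicates per concentration.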

[3] = system: hSC-CMs (Cor.4U Cardiomyocytes); experiment: ATP assay (CellTiter-Glo Luminescent Cell Viability Assay); assay type: cell-based, human; conditions: for viability at 0.2 µM / viability at 2 µM / viability at 20 µM / viability at 200 µM: Homo sapiens, Cardiomyocyte, normalized to time-matched DMSO control
Summary of the method: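 Human stem-cell-derived Cor.4U cardiomyocytes (25,000–30,000/well), cultured 4 days at 37 °C, switched to serum-free BMCC medium 12 h before dosing. Cellular ATP quantified by CellTiter-Glo luminescence and normalized to time-matched DMSO controls; at least three replicates per concentration.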

PI3K p110β = conditions: ref [23]–[25] (NVP-BEZ235), [27] (LY 294002), [28] (GDC-0941), [32] (TGX-221), [33] (CAL-101), [35] (CZC24832); read-out: Target IC50 p110β; cited from earlier work
[4] = clinical exposure in patients; ref [26] (NVP-BEZ235), [29], [30] (GDC-0941), [34] (CAL-101); cited from earlier work

With CC[C@H](Nc1ncnc2[nH]cnc12)c1nc2cccc(F)c2c(=O)n1-c1ccccc1 [CAL-101, Idelalisib] the activity at 0.2 µM ([1]; 2h, read-out: BR) was 102%, the activity at 0.2 µM ([1]; 2h, read-out: Base Imp) was 93% and the activity at 0.2 µM ([1]; 24h, read-out: BR) was 99%. The activity at 0.2 µM ([1]; 24h, read-out: Base Imp) was 94%, the activity at 2 µM ([1]; 2h, read-out: BR) was 96% and the activity at 2 µM ([1]; 2h, read-out: Base Imp) was 93%. The activity at 2 µM ([1]; 24h, read-out: BR) was 94%, the activity at 2 µM ([1]; 24h, read-out: Base Imp) was 99% and the activity at 20 µM ([1]; 2h, read-out: BR) was 89%. It also gave an activity at 20 µM ([1]; 2h, read-out: Base Imp) of 96%, an activity at 20 µM ([1]; 24h, read-out: BR) of 80% and an activity at 20 µM ([1]; 24h, read-out: Base Imp) of 89%. For the same compound, the activity at 200 µM ([1]; 2h, read-out: BR) was 5%, the activity at 200 µM ([1]; 2h, read-out: Base Imp) was 70% and the activity at 200 µM ([1]; 24h, read-out: BR) was 39%. The activity at 200 µM ([1]; 24h, read-out: Base Imp) was 52%, the “Effect on cardiomyocyte function in 3D surface plots (beating rate, base impedance, ATP), in words” value ([1]; hSC-CMs, 2 and 24 h) was “pronounced effects” and the “Reduction of base impedance” value ([1]; hSC-CMs, 2 and 24 h) was “more than 20%”. The “Reduction of beating rate” value ([1]; hSC-CMs, 2 and 24 h) was “more than 20%”, the activity at 0.2 µM ([2]; 2h) was 137% and the activity at 0.2 µM ([2]; 24h) was 90%. For the same compound, the activity at 2 µM ([2]; 2h) was 118%, the activity at 2 µM ([2]; 24h) was 83% and the activity at 20 µM ([2]; 2h) was 99%. It also gave an activity at 20 µM ([2]; 24h) of 169%, an activity at 200 µM ([2]; 2h) of 83% and an activity at 200 µM ([2]; 24h) of 544%. For the same compound, the “Apoptosis (caspase-3/7 activation), result in words” value ([2]; hSC-CMs, monitored over 24 h) was “induced apoptosis in hSC-CMs with a fast onset”, the “Time to reach the maximum number of apoptotic cells” value ([2]; hSC-CMs, monitored over 24 h) was no more than 12 h and the viability at 0.2 µM ([3]; 2h) was 87%. The viability at 0.2 µM ([3]; 24h) was 98%, the viability at 2 µM ([3]; 2h) was 87% and the viability at 2 µM ([3]; 24h) was 92%. For the same compound, the viability at 20 µM ([3]; 2h) was 92%, the viability at 20 µM ([3]; 24h) was 89% and the viability at 200 µM ([3]; 2h) was 98%. For the same compound, the viability at 200 µM ([3]; 24h) was 79%, the “Decrease of ATP level” value ([3]; hSC-CMs, after 24 h of incubation) was 20–25% and the IC50 (PI3K p110β) was 56 nM. For the same compound, the Cmax free [4] was 0.7 µM.
